Data set [1] is described as follows: Gravimetric Vapour Sorption Analysis (GVA), hygroscopicity testing. Format: physicochemical. As to the method: Gravimetric Vapour Sorption Analysis (GVA) was carried out with approximately 20 mg of sample placed into a suitable sample holder such as a wire-mesh vapour sorption balance pan. This was loaded into either an IGAsorp (Hiden Analytical Instruments) or a DVS Intrinsic (Surface Measurement Systems) vapour sorption balance held at 25+/−0.1° C. The sample was then dried by maintaining a 0% humidity environment until no further weight change was recorded (alternatively, the sorption/desorption cycle is initiated at typical ambient conditions of 40% relative humidity). Subsequently, the sample was then subjected to a ramping profile up to 90% relative humidity at 10% relative humidity increments, maintaining the sample at each step until equilibration had been attained (99.5% step completion). Upon reaching equilibration, the relative humidity within the apparatus was ramped to the next step and the equilibration procedure repeated. After completion of the sorption cycle, the sample was then dried using the same procedure. The weight change during the sorption/desorption cycles was then monitored, allowing for the hygroscopic nature of the sample to be determined.
The amorphous form is hygroscopic as indicated by Gravimetric Vapour Sorption Analysis (GVA).
In contrast, there was no significant water uptake observed between 40% RH and 90% RH (approximately 0.3% w/w) by the crystalline solid form (the water sorption/desorption isotherms are shown in FIGS. 9 and 10).

Data set [2] can be described thus: Stability testing: storage for 6 months at 40° C. and 75% relative humidity (Karl Fischer, HPLC, appearance). The format is physicochemical. To be noted: for sum of impurities (HPLC), initial / water / moisture content (Karl Fischer), initial: before storage. How it is done:
Karl Fischer moisture content determination was carried out using Metrohm 795 KFT volumetric Karl Fischer apparatus. Sample size was approximately 100 mg and the determination was carried out in duplicate.
HPLC data were collected using a Zorbax Extend C18, 2.1 mm×150 mm, 5 μm d.p. column. Flow rate was 0.3 mL/min. Injection volume was 10 μL, detector wavelength 220 nm and column temperature 40° C. Eluent A was 10 mM aqueous ammonium acetate, pH 5.0. Eluent B was 20:80 v/v 10 mM aqueous ammonium acetate: acetonitrile. The gradient programme is shown below: […]
Also, there is no significant degradation as measured by the sum of impurities which increases only from 0.9% to 1.0% (HPLC).

In the next data set the target is T1, vasopressin V2 receptor (Rattus norvegicus, UniProt Q00788).
T1 construct: from tissue; host or cells: whole animal (in vivo)
T1 sequence (Q00788 whole entry): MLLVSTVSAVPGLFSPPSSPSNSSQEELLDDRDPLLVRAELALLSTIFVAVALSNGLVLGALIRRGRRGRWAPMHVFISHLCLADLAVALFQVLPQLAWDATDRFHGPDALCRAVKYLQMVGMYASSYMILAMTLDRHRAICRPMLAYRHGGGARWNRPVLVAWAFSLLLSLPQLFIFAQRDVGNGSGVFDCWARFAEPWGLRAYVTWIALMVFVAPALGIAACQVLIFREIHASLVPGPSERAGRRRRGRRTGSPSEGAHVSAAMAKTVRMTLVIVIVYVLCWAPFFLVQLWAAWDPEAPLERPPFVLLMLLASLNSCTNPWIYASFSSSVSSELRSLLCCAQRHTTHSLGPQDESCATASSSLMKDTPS
In words: in vivo assay described in PCT/GB2001/000023 (inhibition of urine output). To be noted: at 1 hour, dosed at 1 mg/Kg. The source says: The ability of the crystalline form of the invention to agonise the vasopressin V2 receptor may be determined using the in vivo assay described in PCT/GB2001/000023.

Where [3] appears, read: 6 months at 40° C. and 75% relative humidity.

Structures are written as SMILES. “Also recorded” adds a separate entry of the source. Read-outs that look alike come from different tables or passages of the source.

This is an account of results in patent US9079881B2, “Polymorph of 1-(2-methyl-4-(2,3,4,5-tetrahydro-1-benzazepin-1-ylcarbonyl)benzylcarbamoyl)-L-proline-N,N-dimethylamide” (Vantia Limited, priority 2010, dated 2015).

Turning to `Cc1cc(C(=O)N2CCCCc3ccccc32)ccc1CNC(=O)N1CCC[C@H]1C(=O)N(C)C` [crystalline form, 1-(2-methyl-4-(2,3,4,5-tetrahydro-1-benzazepin-1-ylcarbonyl)benzylcarbamoyl)-L-proline-N,N-dimethylamide], in data set [1], the “hygroscopicity (in words)” value is “much less hygroscopic than the amorphous form” and the “change in solid form over the entire water sorption range” value (shortened to “change in solid form”) is reported as “Neither is there any change in solid form”. Besides, the “water uptake between 40% RH and 90% RH” value in data set [1] (25 °C, 40% RH to 90% RH) is given as “approximately 0.3 % w/w”. Besides, the “change in solid form” value in data set [1] (listed as crystalline solid form) is on record as “no change in solid state form”. In addition, in data set [2] (setting [3]), the appearance after storage entry is reported as “remains as a white powder”, the “stability (in words)” value is on record as “more stable than the amorphous form”, the “sum of impurities (HPLC) after storage” value came to 1.0% and the “water / moisture content (Karl Fischer) after storage” value came out at 3.8%. For the same compound, the “sum of impurities (HPLC), initial” value in data set [2] is 0.9%. Further, the “water / moisture content (Karl Fischer), initial” value in data set [2] (listed as Form 1) was 3.8%.

Consider `Cc1cc(C(=O)N2CCCCc3ccccc32)ccc1CNC(=O)N1CCC[C@H]1C(=O)N(C)C` [amorphous form, 1-(2-methyl-4-(2,3,4,5-tetrahydro-1-benzazepin-1-ylcarbonyl)benzylcarbamoyl)-L-proline-N,N-dimethylamide], for which, in data set [1], the “hygroscopicity (in words)” value was “highly hygroscopic” and the “change in solid form” value was “remained stable to recrystallisation”. Besides, in data set [1] (listed as amorphous solid), the “hygroscopicity (in words)” value was “hygroscopic”. Also, in data set [2] (setting [3]), the appearance after storage result was “became glassy in appearance and became yellow in colour; also recorded: became glassy in appearance and yellow in colour”; the “sum of impurities (HPLC) after storage” value worked out at 3.7%; the “water / moisture content (Karl Fischer) after storage” value stood at 5.7%. In addition, in data set [2], the “sum of impurities (HPLC), initial” value is 1.5% and the “water / moisture content (Karl Fischer), initial” value is recorded as 1.3%.

Turning to `Cc1cc(C(=O)N2CCCCc3ccccc32)ccc1CNC(=O)N1CCC[C@H]1C(=O)N(C)C` [1-(2-methyl-4-(2,3,4,5-tetrahydro-1-benzazepin-1-ylcarbonyl)benzylcarbamoyl)-L-proline-N,N-dimethylamide], the “inhibition of urine output” value against vasopressin V2 receptor was 82%.
